Among the data in US4786633A, “Cephalosporin compounds” (Tanabe Seiyaku Co., Ltd., priority 1986, dated 1988) are MIC and ED50 values, retold here.

SMILES strings stand for the structures. ≈ marks a conversion by molar mass, not a printed value.

Assay [1] has as its system Pseudomonas aeruginosa PI-67. Description: Antimicrobial activity in vitro (MIC, standard agar plate dilution method). The assay is classed as cell-based. As to conditions: PI67, Mueller-Hinton agar, read-out: M.I.C. (minimum inhibitory concentration). How it is done:
(§1) (Antimicrobial activity in vitro)
(§2) The minimum inhibitory concentration (MIC, μg/ml) of a test compound was determined by means of a standard agar plate dilution method (based on the standard method of Japan Society of Chemotherapy). Media used in the experiment were Mueller-Hinton agar (MHA; product of Nissui).

The subject of assay [2] is Staphylococcus aureus Smith. Described as above. Type of assay: cell-based. As to conditions: Mueller-Hinton agar, read-out: M.I.C. (minimum inhibitory concentration). The protocol:
as §1, §2

The subject of assay [3] is Staphylococcus aureus Smith. Description: Protective effects on bacterial infections in mice (Staphylococcus aureus Smith). Type of assay: in vivo. As to conditions: im, 168 h, intraperitoneal challenge, compound intramuscularly one hour after infection, survival 7 days after infection, probit analysis, read-out: ED50 (median effective dose). The protocol:
(§3) (Protective effects on bacterial infections in mice) Ten mice weighing 20±1 g were used for each dose level. Mice were challenged via the intraperitoneal route with sufficient bacteria to kill all non-treated mice within 24 hours. All bacteria were suspended in a physiological saline solution containing 6% mucin. A test compound was administered intramuscularly one hour after the infection. Survival ratios were determined 7 days after the infection. The median effective doses (ED50, mg/kg) of the test compound were estimated by the probit analysis.

Assay [4] deals with Pseudomonas aeruginosa PI-67. Description: Protective effects on bacterial infections in mice (Pseudomonas aeruginosa PI-67). Type of assay: in vivo. As to conditions: PI67, im, 168 h, intraperitoneal challenge, compound intramuscularly one hour after infection, survival 7 days after infection, probit analysis, read-out: ED50 (median effective dose). How it is done: as §3

Usually ED50 stands for the midpoint of the dose-response relation. As to `C[n+]1ccccc1SCC1=C(C(=O)[O-])N2C(=O)C(NC(=O)/C(=N\O[C@H]3CCNC3=O)c3csc(N)n3)C2SC1` (stereo partly drawn) [Test Compound 2, 7β-{(Z)-2-(2-aminothiazol-4-yl)-2-[((3S)-2-oxopyrrolidin-3-yl)oxyimino]acetamido}-3-(1-methyl-2-pyridinio)thiomethyl-3-cephem-4-carboxylate], the MIC in assay [1] worked out at 1.56 µg/mL (≈ 2.65 µM); in assay [2], 0.78 µg/mL (≈ 1.32 µM). Moreover, the ED50 in assay [3] came out at 0.25 mg/kg; in assay [4], 15.8 mg/kg.

In the case of `C[n+]1ccc(SCC2=C(C(=O)[O-])N3C(=O)C(NC(=O)/C(=N\O[C@H]4CCNC4=O)c4csc(N)n4)C3SC2)cc1` (stereo partly drawn) [Test Compound 1, 7β-{(Z)-2-(2-aminothiazol-4-yl)-2-[((3S)-2-oxopyrrolidin-3-yl)oxyimino]acetamido}-3-(1-methyl-4-pyridinio)thiomethyl-3-cephem-4-carboxylate], the MIC in assay [1] and in assay [2] was 0.78 µg/mL (≈ 1.32 µM) each time. The ED50 in assay [3] is 0.14 mg/kg; in assay [4], 12.3 mg/kg.

Consider `C=CC[n+]1ccccc1SCC1=C(C(=O)[O-])N2C(=O)C(NC(=O)/C(=N\O[C@H]3CCNC3=O)c3csc(N)n3)C2SC1` (stereo partly drawn) [Test Compound 3, 7β-{(Z)-2-(2-aminothiazol-4-yl)-2-[((3S)-2-oxopyrrolidin-3-yl)oxyimino]acetamido}-3-(1-allyl-2-pyridinio)thiomethyl-3-cephem-4-carboxylate], for which the MIC in assay [1] amounted to 3.13 µg/mL (≈ 5.08 µM); in assay [2], 1.56 µg/mL (≈ 2.53 µM). Also, the ED50 in assay [3] is 0.4 mg/kg; in assay [4], 10.8 mg/kg.
